Activity calls are given as the source filed them. No cut-off for these calls is given here.
What was measured:
Ipomoea lacunosa [1] = experiment: Post-emergence herbicidal activity against Ipomoea lacunosa assessed as mortality per 10 acre; format: functional
Echinochloa crus-galli [2] = experiment: Post-emergence herbicidal activity against Echinochloa crus-galli (barnyard grass) assessed as mortality per 10 acre; format: functional
Amaranthus retroflexus [3] = experiment: Pre-emergence herbicidal activity against Amaranthus retroflexus assessed as mortality per 10 acre; format: functional
Persicaria nodosa [4] = experiment: Pre-emergence herbicidal activity against Persicaria nodosa assessed as mortality per 10 acre; format: functional
Glycine max [5] = experiment: Post-emergence phytotoxicity against Glycine max (soybean) assessed as mortality at 1.6 g a.i/10 a applied 11 days after germination as foliar spray; format: organism-based; conditions: in vivo, other, 264 h
Amaranthus retroflexus [6] = experiment: Post-emergence herbicidal activity against Amaranthus retroflexus assessed as mortality per 10 acre; format: functional
Gossypium hirsutum [7] = experiment: Post-emergence phytotoxicity against Gossypium hirsutum (cotton) assessed as mortality per 10 acre; format: organism-based; conditions: in vivo
Cyperus iria [8] = experiment: Post-emergence herbicidal activity against Cyperus iria assessed as growth inhibition at 25 g a.i/10 a applied 11 days after germination as foliar spray; format: functional, organism-based
[9] = Pre-emergence phytotoxicity against Gossypium hirsutum (cotton) assessed as mortality at 6.3 g a.i/10 a; format: organism-based; conditions: in vivo, 6.3 g a.i/10 a, read-out: Activity
Zea mays [10] = experiment: Pre-emergence phytotoxicity against Zea mays (maize) assessed as mortality at 6.3 g a.i/10 a; format: organism-based; conditions: in vivo, other
Gossypium hirsutum [11] = experiment: Pre-emergence phytotoxicity against Gossypium hirsutum (cotton) assessed as mortality per 10 acre; format: organism-based; conditions: in vivo
Digitaria sanguinalis [12] = experiment: Pre-emergence herbicidal activity against Digitaria sanguinalis (hairy crabgrass) assessed as growth inhibition at 25 g a.i/10 a; format: functional, organism-based
Cyperus iria [13] = experiment: Pre-emergence herbicidal activity against Cyperus iria assessed as growth inhibition at 25 g a.i/10 a; format: functional, organism-based
Persicaria nodosa [14] = experiment: Post-emergence herbicidal activity against Persicaria nodosa assessed as growth inhibition at 25 g a.i/10 a applied 11 days after germination as foliar spray; format: functional, organism-based
Glycine max [15] = experiment: (§1) Pre-emergence phytotoxicity against Glycine max (soybean) assessed as mortality at 1.6 g a.i/10 a; format: organism-based; conditions: in vivo, other
Persicaria nodosa [16] = experiment: Post-emergence herbicidal activity against Persicaria nodosa assessed as mortality per 10 acre; format: functional
Echinochloa crus-galli [17] = experiment: Post-emergence herbicidal activity against Echinochloa crus-galli (barnyard grass) assessed as growth inhibition at 25 g a.i/10 a applied 11 days after germination as foliar spray; format: functional, organism-based
Chenopodium album [18] = experiment: Pre-emergence herbicidal activity against Chenopodium album assessed as growth inhibition at 25 g a.i/10 a; format: functional, organism-based
Xanthium strumarium [19] = experiment: Pre-emergence herbicidal activity against Xanthium strumarium (cocklebur) assessed as mortality per 10 acre; format: functional
Glycine max [20] = experiment: (§2) Pre-emergence phytotoxicity against Glycine max (soybean) assessed as mortality at 6.3 g a.i/10 a; format: organism-based; conditions: in vivo, other
Ipomoea lacunosa [21] = experiment: Pre-emergence herbicidal activity against Ipomoea lacunosa assessed as mortality at 1.6 g a.i/10 a; format: functional
Abutilon theophrasti [22] = experiment: Post-emergence herbicidal activity against Abutilon theophrasti (velvetleaf) assessed as mortality at 6.3 g a.i/10 a applied 11 days after germination as foliar spray; format: functional; conditions: 264 h
Ipomoea lacunosa [23] = experiment: Post-emergence herbicidal activity against Ipomoea lacunosa assessed as mortality at 6.3 g a.i/10 a applied 11 days after germination as foliar spray; format: functional; conditions: 264 h
Gossypium hirsutum [24] = experiment: Pre-emergence phytotoxicity against Gossypium hirsutum (cotton) assessed as mortality at 1.6 g a.i/10 a; format: organism-based; conditions: in vivo, other
Zea mays [25] = experiment: Pre-emergence phytotoxicity against Zea mays (maize) assessed as mortality at 1.6 g a.i/10 a; format: organism-based; conditions: in vivo, other
Amaranthus retroflexus [26] = experiment: Post-emergence herbicidal activity against Amaranthus retroflexus assessed as growth inhibition at 25 g a.i/10 a applied 11 days after germination as foliar spray; format: functional, organism-based
Zea mays [27] = experiment: Post-emergence phytotoxicity against Zea mays (maize) assessed as mortality at 1.6 g a.i/10 a applied 11 days after germination as foliar spray; format: organism-based; conditions: in vivo, other, 264 h
[28] = Post-emergence phytotoxicity against Gossypium hirsutum (cotton) assessed as mortality at 1.6 g a.i/10 a applied 11 days after germination as foliar spray; format: organism-based; conditions: in vivo, 1.6 g a.i/10 a
Xanthium strumarium [29] = experiment: Pre-emergence herbicidal activity against Xanthium strumarium (cocklebur) assessed as mortality at 1.6 g a.i/10 a; format: functional
Ipomoea lacunosa [30] = experiment: Pre-emergence herbicidal activity against Ipomoea lacunosa assessed as mortality at 6.3 g a.i/10 a; format: functional
Ipomoea lacunosa [31] = experiment: Pre-emergence herbicidal activity against Ipomoea lacunosa assessed as mortality per 10 acre; format: functional
[32] = (§3) Post-emergence phytotoxicity against Gossypium hirsutum (cotton) assessed as mortality at 6.3 g a.i/10 a applied 11 days after germination as foliar spray; format: organism-based; conditions: in vivo, 6.3 g a.i/10 a
Echinochloa crus-galli [33] = experiment: Pre-emergence herbicidal activity against Echinochloa crus-galli (barnyard grass) assessed as mortality per 10 acre; format: functional
Chenopodium album [34] = experiment: Post-emergence herbicidal activity against Chenopodium album assessed as growth inhibition at 25 g a.i/10 a applied 11 days after germination as foliar spray; format: functional, organism-based
Xanthium strumarium [35] = experiment: Post-emergence herbicidal activity against Xanthium strumarium (cocklebur) assessed as mortality per 10 acre; format: functional
Amaranthus retroflexus [36] = experiment: Pre-emergence herbicidal activity against Amaranthus retroflexus assessed as growth inhibition at 25 g a.i/10 a; format: functional, organism-based
Echinochloa crus-galli [37] = experiment: Pre-emergence herbicidal activity against Echinochloa crus-galli (barnyard grass) assessed as growth inhibition at 25 g a.i/10 a; format: functional, organism-based
Persicaria nodosa [38] = experiment: Pre-emergence herbicidal activity against Persicaria nodosa assessed as growth inhibition at 25 g a.i/10 a; format: functional, organism-based
Digitaria sanguinalis [39] = experiment: Post-emergence herbicidal activity against Digitaria sanguinalis (hairy crabgrass) assessed as growth inhibition at 25 g a.i/10 a applied 11 days after germination as foliar spray; format: functional, organism-based
Echinochloa crus-galli [40] = experiment: Post-emergence herbicidal activity against Echinochloa crus-galli (barnyard grass) assessed as mortality at 1.6 g a.i/10 a applied 11 days after germination as foliar spray; format: functional; conditions: 264 h
Zea mays [41] = experiment: Post-emergence phytotoxicity against Zea mays (maize) assessed as mortality at 6.3 g a.i/10 a applied 11 days after germination as foliar spray; format: organism-based; conditions: in vivo, other, 264 h
Abutilon theophrasti [42] = experiment: Pre-emergence herbicidal activity against Abutilon theophrasti (velvetleaf) assessed as mortality at 1.6 g a.i/10 a; format: functional
Echinochloa crus-galli [43] = experiment: Pre-emergence herbicidal activity against Echinochloa crus-galli (barnyard grass) assessed as mortality at 6.3 g a.i/10 a; format: functional
Abutilon theophrasti [44] = experiment: Pre-emergence herbicidal activity against Abutilon theophrasti (velvetleaf) assessed as mortality at 6.3 g a.i/10 a; format: functional
Glycine max [45] = experiment: Post-emergence phytotoxicity against Glycine max (soybean) assessed as mortality at 6.3 g a.i/10 a applied 11 days after germination as foliar spray; format: organism-based; conditions: in vivo, other, 264 h
[46] = as §1; format: organism-based; conditions: in vivo, 1.6 g a.i/10 a, read-out: Activity
Xanthium strumarium [47] = experiment: Pre-emergence herbicidal activity against Xanthium strumarium (cocklebur) assessed as mortality at 6.3 g a.i/10 a; format: functional
[48] = as §2; format: organism-based; conditions: in vivo, 6.3 g a.i/10 a, read-out: Activity
Gossypium hirsutum [49] = experiment: as §3; format: organism-based; conditions: in vivo, other, 264 h
Echinochloa crus-galli [50] = experiment: Post-emergence herbicidal activity against Echinochloa crus-galli (barnyard grass) assessed as mortality at 6.3 g a.i/10 a applied 11 days after germination as foliar spray; format: functional; conditions: 264 h

COc1cc(OC)nc(Sc2cccc(Cl)c2C(=O)O)n1 [PYRITHIOBAC]
ED90 (Ipomoea lacunosa [1]): inactive | ED90 (Echinochloa crus-galli [2]): 25 gAi | ED90 (Amaranthus retroflexus [3]): 1.5 gAi | ED90 (Persicaria nodosa [4]): inactive | Activity (Glycine max [5]): Toxic | ED90 (Amaranthus retroflexus [6]): 1.5 gAi | ED20 (Gossypium hirsutum [7]): 50 gAi | growth inhibition (GI) (Cyperus iria [8]): Active | mortality [9]: < 50% | Activity (Zea mays [10]): Toxic | ED20 (Gossypium hirsutum [11]): 50 gAi | growth inhibition (GI) (Digitaria sanguinalis [12]): Active | growth inhibition (GI) (Cyperus iria [13]): Active | growth inhibition (GI) (Persicaria nodosa [14]): Active | Activity (Glycine max [15]): Non-toxic | ED90 (Persicaria nodosa [16]): 1.5 gAi | growth inhibition (GI) (Echinochloa crus-galli [17]): Active | growth inhibition (GI) (Chenopodium album [18]): Active | ED90 (Xanthium strumarium [19]): 25 gAi | Activity (Glycine max [20]): Non-toxic | Activity (Ipomoea lacunosa [21]): <50% | mortality at 63 g/ha (Abutilon theophrasti [22]): > 90% | mortality at 63 g/ha (Ipomoea lacunosa [23]): > 90% | Activity (Gossypium hirsutum [24]): < 50% | Activity (Zea mays [25]): Toxic | growth inhibition (GI) (Amaranthus retroflexus [26]): Active | Activity (Zea mays [27]): Toxic | mortality at 264 h [28]: < 5% | Activity (Xanthium strumarium [29]): <50% | Activity (Ipomoea lacunosa [30]): <50% | ED90 (Ipomoea lacunosa [31]): 25 gAi | mortality at 264 h [32]: < 5% | ED90 (Echinochloa crus-galli [33]): 25 gAi | growth inhibition (GI) (Chenopodium album [34]): Active | ED90 (Xanthium strumarium [35]): Active | growth inhibition (GI) (Amaranthus retroflexus [36]): Active | growth inhibition (GI) (Echinochloa crus-galli [37]): Active | growth inhibition (GI) (Persicaria nodosa [38]): Active | growth inhibition (GI) (Digitaria sanguinalis [39]): Active

COc1cc(OC)nc(Sc2cccc(C(F)(F)F)c2C(=O)O)n1
mortality at 16 g/ha (Echinochloa crus-galli [40]): < 5% | Activity (Glycine max [5]): Toxic | mortality [9]: < 50% | Activity (Zea mays [10]): Toxic | Activity (Glycine max [15]): Non-toxic | Activity (Zea mays [41]): Toxic | Activity (Glycine max [20]): Toxic | Activity (Ipomoea lacunosa [21]): <50% | Activity (Gossypium hirsutum [24]): < 50% | Activity (Zea mays [25]): Non-toxic | Activity (Abutilon theophrasti [42]): <50% | Activity (Zea mays [27]): Toxic | mortality at 264 h [28]: < 5% | Activity (Ipomoea lacunosa [30]): <50% | Activity (Echinochloa crus-galli [43]): >90% | mortality at 264 h [32]: < 5% | Activity (Abutilon theophrasti [44]): <50% | Activity (Glycine max [45]): Toxic

COc1cc(OC)nc(Sc2cccc(C(C)=O)c2C(=O)O)n1
Activity (Glycine max [5]): Non-toxic | mortality [9]: < 50% | Activity (Zea mays [10]): Toxic | mortality [46]: < 50% | Activity (Xanthium strumarium [47]): <50% | mortality [48]: < 50% | Activity (Ipomoea lacunosa [21]): <50% | Activity (Gossypium hirsutum [24]): < 50% | Activity (Zea mays [25]): Non-toxic | Activity (Zea mays [27]): Toxic | mortality at 264 h [28]: < 5% | Activity (Xanthium strumarium [29]): <50% | Activity (Ipomoea lacunosa [30]): <50% | Activity (Gossypium hirsutum [49]): Non-toxic | Activity (Glycine max [45]): Non-toxic | mortality at 63 g/ha (Echinochloa crus-galli [50]): > 90%

Reference: ChEMBL document CHEMBL3046894, “Synthesis and Herbicidal Activity of Pyrimidinyl Salicylic and Thiosalicylic Acids” (J Pestic Sci, 1996)
